With `CCOc1nn(-c2ccc(C(F)(F)F)cn2)cc1CCOc1ccccc1CC(=O)O` [Example 57, [2-(2-{3-ethoxy-1-[5-(trifluoromethyl)-2-pyridinyl]-1H-pyrazol-4-yl}ethoxy)phenyl]acetic acid], the melting point lay in the range of 134 to 135 °C.

Regarding `CCCc1nn(-c2ccc(C(F)(F)F)cn2)cc1CCCCOc1nn(C)cc1CC(=O)O` [Example 61, [1-methyl-3-(4-{3-propyl-1-[5-(trifluoromethyl)-2-pyridinyl]-1H-pyrazol-4-yl}butoxy)-1H-pyrazol-4-yl]acetic acid], the melting point lay in the range of 95 to 97 °C.

Take `CCCc1nn(-c2ccc(C(F)(F)F)cn2)cc1CCCCOc1ccc(CCC(=O)O)c(C)c1` [Example 64, 3-[2-methyl-4-(4-{3-propyl-1-[5-(trifluoromethyl)-2-pyridinyl]-1H-pyrazol-4-yl}butoxy)phenyl]propanoic acid]: the melting point is 105 to 107 °C.

The compound `CCCc1nn(-c2ccc(C(F)(F)F)cn2)cc1CCCCOc1nn(-c2ccccc2)cc1CC(=O)O` [Example 66, [1-phenyl-3-(4-{3-propyl-1-[5-(trifluoromethyl)-2-pyridinyl]-1H-pyrazol-4-yl}butoxy)-1H-pyrazol-4-yl]acetic acid] yielded a melting point of 114 to 115 °C.

`CCCc1nn(-c2ccc(C(F)(F)F)cn2)cc1CCCOc1nn(-c2ccccc2)cc1CC(=O)O` [Example 67, [1-phenyl-3-(3-{3-propyl-1-[5-(trifluoromethyl)-2-pyridinyl]-1H-pyrazol-4-yl}propoxy)-1H-pyrazol-4-yl]acetic acid] had a melting point of 123 to 124 °C.

`CC(C)c1nn(-c2ccc(C(F)(F)F)cn2)cc1CCCCOc1nn(-c2ccccc2)cc1CC(=O)O` [Example 68, [3-(4-{3-isopropyl-1-[5-(trifluoromethyl)-2-pyridinyl]-1H-pyrazol-4-yl}butoxy)-1-phenyl-1H-pyrazol-4-yl]acetic acid] registered a melting point of 119 to 120 °C.

`COc1cc(OCCCCc2cn(-c3ccc(C(F)(F)F)cn3)nc2C(C)C)ccc1CCC(=O)O` [Example 69, 3-[4-(4-{3-isopropyl-1-[5-(trifluoromethyl)-2-pyridinyl]-1H-pyrazol-4-yl}butoxy)-2-methoxyphenyl]propanoic acid] gave a melting point of 125 to 126 °C.

Turning to `CCCc1nn(-c2ccc(C(F)(F)F)cn2)cc1CCCCOc1cc(CCC(=O)O)n(C)n1` [Example 70, 3-[1-methyl-3-(4-{3-propyl-1-[5-(trifluoromethyl)-2-pyridinyl]-1H-pyrazol-4-yl}butoxy)-1H-pyrazol-5-yl]propanoic acid], the melting point lay within 122 to 123 °C.

For the compound `O=C(O)CCc1cc(OCCCc2cn(-c3ccc(C(F)(F)F)cn3)nc2OCc2ccccc2)nn1-c1ccccc1` [Example 71, 3-[3-(3-{3-(benzyloxy)-1-[5-(trifluoromethyl)-2-pyridinyl]-1H-pyrazol-4-yl}propoxy)-1-phenyl-1H-pyrazol-5-yl]propanoic acid], the melting point lay within 159 to 161 °C.

As to `CCOc1nn(-c2ccc(C(F)(F)F)cn2)cc1CCOc1ccc(CC(=O)O)cc1` [Example 73, [4-(2-{3-ethoxy-1-[5-(trifluoromethyl)-2-pyridinyl]-1H-pyrazol-4-yl}ethoxy)phenyl]acetic acid], the melting point is 142 to 143 °C.

For `CCOc1nn(-c2ccc(C(F)(F)F)cn2)cc1CCOc1cccc(OC(C)(C)C(=O)O)c1` [Example 74, 2-[3-(2-{3-ethoxy-1-[5-(trifluoromethyl)-2-pyridinyl]-1H-pyrazol-4-yl}ethoxy)phenoxy]-2-methylpropanoic acid], the melting point fell in the range of 89 to 90 °C.

`CCCc1nn(-c2ccc(C(F)(F)F)cn2)cc1CCCCn1cc(CCC(=O)[O-])c(OCC)n1.[Na+]` [Example 78, sodium 3-[3-ethoxy-1-(4-{3-propyl-1-[5-(trifluoromethyl)-2-pyridinyl]-1H-pyrazol-4-yl}butyl)-1H-pyrazol-4-yl]propanoate] came in with a melting point of 250 to 251 °C.

`CCCc1nn(-c2ccc(C(F)(F)F)cn2)cc1CCCOc1ccc(CC(=O)O)cc1OC` [Example 79, [3-methoxy-4-(3-{3-propyl-1-[5-(trifluoromethyl)-2-pyridyl]-1H-pyrazol-4-yl}propoxy)phenyl]acetic acid] had a melting point of 121 to 122 °C.

Regarding `CCCc1nn(-c2ccc(C(F)(F)F)cn2)cc1CCCOc1cc(CC(=O)O)ccc1OC` [Example 80, [4-methoxy-3-(3-{3-propyl-1-[5-(trifluoromethyl)-2-pyridinyl]-1H-pyrazol-4-yl}propoxy)phenyl]acetic acid], the melting point is 124 to 126 °C.

`CCCc1nn(-c2ccc(C(F)(F)F)cn2)cc1CCCOc1ccc(OC)c(CCC(=O)O)c1` [Example 81, 3-[2-methoxy-5-(3-{3-propyl-1-[5-(trifluoromethyl)-2-pyridinyl]-1H-pyrazol-4-yl}propoxy)phenyl]propanoic acid] gave a melting point of 104 to 106 °C.

`CCCc1nn(-c2ccc(C(F)(F)F)cn2)cc1CCCOc1ccc(CCC(=O)O)cc1` [Example 82, 3-[4-(3-{3-propyl-1-[5-(trifluoromethyl)-2-pyridyl]-1H-pyrazol-4-yl}propoxy)phenyl]propionic acid]: the melting point was in the range of 118 to 119 °C.

`CCCc1nn(-c2ccc(C(F)(F)F)cn2)cc1CCCOc1ccccc1CCC(=O)O` [Example 83, 3-[2-(3-{3-propyl-1-[5-(trifluoromethyl)-2-pyridyl]-1H-pyrazol-4-yl}propoxy)phenyl]propionic acid]: the melting point was in the range of 87 to 88 °C.

In the case of `CCCc1nn(-c2ccc(C(F)(F)F)cn2)cc1CCCOc1cccc(CCC(=O)O)c1` [Example 84, 3-[3-(3-{3-propyl-1-[5-(trifluoromethyl)-2-pyridyl]-1H-pyrazol-4-yl}propoxy)phenyl]propionic acid], the melting point lay within 97 to 98 °C.

`CCCc1nn(-c2ccc(C(F)(F)F)cn2)cc1CCCOc1nn(C)cc1CC(=O)O` [Example 87, [1-methyl-3-(3-{3-propyl-1-[5-(trifluoromethyl)-2-pyridyl]-1H-pyrazol-4-yl}propoxy)-1H-pyrazol-4-yl]acetic acid] came in with a melting point of 119 to 120 °C.

Take `CCCc1nn(-c2ccc(C(F)(F)F)cn2)cc1CCCCOc1ccc(CC(=O)O)cc1` [Example 88, [4-(4-{3-propyl-1-[5-(trifluoromethyl)-2-pyridyl]-1H-pyrazol-4-yl}butoxy)phenyl]acetic acid]: the melting point fell in the range of 121 to 122 °C.

Turning to `CCCc1nn(-c2ccc(C(F)(F)F)cn2)cc1CCCCOc1ccc(CCC(=O)O)c(OC)c1` [Example 89, 3-[2-methoxy-4-(4-{3-propyl-1-[5-(trifluoromethyl)-2-pyridyl]-1H-pyrazol-4-yl}butoxy)phenyl]propionic acid], the melting point was in the range of 91 to 92 °C.

Take `CCCc1nn(-c2ccc(C(F)(F)F)cn2)cc1CCCOc1ccc(F)c(CC(=O)O)c1` [Example 90, [2-fluoro-5-(3-{3-propyl-1-[5-(trifluoromethyl)-2-pyridyl]-1H-pyrazol-4-yl}propoxy)phenyl]acetic acid]: the melting point is 111 to 112 °C.

For `CCCc1nn(-c2ccc(C(F)(F)F)cn2)cc1CCCOc1cc(CCC(=O)O)ccc1OC` [Example 93, 3-[4-methoxy-3-(3-{3-propyl-1-[5-(trifluoromethyl)-2-pyridyl]-1H-pyrazol-4-yl}propoxy)phenyl]propionic acid], the melting point is 147 to 148 °C.
